A value given as a limit tells only on which side of the number the result lay.

Among the data in patent US8466188B2, “Use of spiro-oxindole compounds as therapeutic agents” (Xenon Pharmaceuticals Inc., priority 2006, dated 2013) are IC50 values, retold here.

This assay relates to sodium channel. Nature of the assay: Guanidine influx assay (14C-guanidine radiotracer flux) in a known cell line that expresses a sodium channel. It is filed as cell-based, human or rat. The text has this:
This example describes an in vitro assay for testing and profiling test agents against human or rat sodium channels stably expressed in cells of either an endogenous or recombinant origin.
The guanidine influx assay is a radiotracer flux assay used to determine ion flux activity of sodium channels in a high-throughput microplate-based format. The assay uses ^14C-guanidine hydrochloride in combination with various known sodium channel modulators, to assay the potency of test agents. Potency is determined by an IC50 calculation. Selectivity is determined by comparing potency of the compound for the channel of interest to its potency against other sodium channels (also called ‘selectivity profiling’).
Each of the test agents is assayed against cells that express the sodium channel of interest. Voltage gated sodium channels are either TTX sensitive or insensitive. This property is useful when evaluating the activities of a channel of interest when it resides in a mixed population with other sodium channels. The following Table 1 lists certain cell lines which are useful in screening for a certain sodium channel activity in the presence or absence of TTX.
It is also possible to employ recombinant cells expressing these sodium channels.
Cells expressing the channel of interest are grown according to the supplier or in the case of a recombinant cell in the presence of selective growth media such as G418 (Gibco/Invitrogen). The cells are disassociated from the culture dishes with an enzymatic solution (1×) Trypsin/EDTA (Gibco/Invitrogen) and analyzed for density and viability using haemocytometer (Neubauer). Disassociated cells are washed and resuspended in their culture media then plated into Scintiplates (Beckman Coulter Inc.) (approximately 100,000 cells/well) and incubated at 37° C./5% CO2 for 20-24 hours. After an extensive wash with Low sodium HEPES-buffered saline solution (LNHBSS) (150 mM Choline Chloride, […] (Sigma), 1 mM Calcium Chloride, 5 mM Potassium Chloride, 1 mM Magnesium Chloride, 10 mM Glucose) agents diluted with LNHBSS are added to each well. (Varying concentrations of test agent may be used). The activation/radiolabel mixture contains aconitine (Sigma), and ^14C-guanidine hydrochloride (ARC).
After loading the cells with test agent and activation/radiolabel mixture, the Scintiplates are incubated at ambient temperature. Following the incubation, the Scintplates are extensively washed with LNHBSS supplemented with guanidine (Sigma). The Scintiplates are dried and then counted using a Wallac MicroBeta TriLux (Perkin-Elmer Life Sciences). The ability of the test agent to block sodium channel activity is determined by comparing the amount of ^14C-guanidine present inside the cells expressing the different sodium channels.
IC50 value of a test agent for a specific sodium channel may be determined using the above general method. […] The IC50 curve is calculated using the 4 Parameter Logistic Model or Sigmoidal Dose-Response Model formula (fit=(A+((B−A)/(1+((C/x)^D)))).
The fold selectivity, factor of selectivity or multiple of selectivity, is calculated by dividing the IC50 value of the test sodium channel by the reference sodium channel, for example, Nav1.5.
The Example numbers provided in Table 2 correspond to the Example numbers herein: […]

Consider `O=C(O)CN1C(=O)C2(COc3cc4c(cc32)OCO4)c2ccccc21` (stereo not shown) [Example 2, (2′-oxospiro[furo[2,3-f][1,3]benzodioxole-7,3′-indol]-1′(2′H)-yl)acetic acid], for which the IC50 was > 1000 nM. On to `O=C(CN1C(=O)C2(COc3cc4c(cc32)OCO4)c2ccccc21)NCc1ccc(Cl)cc1` (stereo not shown) [Example 3, N-(4-chlorobenzyl)-2-(2′-oxospiro[furo[2,3-f][1,3]benzodioxole-7,3′-indol]-1′(2′H)-yl)acetamide], for which the IC50 lay within 100 to 1000 nM. For the compound `CCCCCN1C(=O)C2(COc3cc4c(cc32)OCO4)c2c(-c3ccc(N(C)C)nc3)cccc21` (stereo not shown) [Example 4, 4′-[6-(dimethylamino)pyridin-3-yl]-1′-pentylspiro[furo[2,3-f][1,3]benzodioxole-7,3′-indol]-2′(1′H)one], the IC50 lay in the range of 100 to 1000 nM. The figure for `CCCCCN1C(=O)C2(COc3cc4c(cc32)OCO4)c2c(Nc3ccc(OC)nc3)cccc21` (stereo not shown) [Example 5, 4′-[(6-methoxypyridin-3-yl)amino]-1′-pentylspiro[furo[2,3-f][1,3]benzodioxole-7,3′-indol]-2′(1′H)-one] is 100 to 1000 nM; for `O=C(O)c1ccccc1CN1C(=O)C2(COc3cc4c(cc32)OCO4)c2ccccc21` (stereo not shown) [Example 6, 2-[(2′-oxospiro[furo[2,3-f][1,3]benzodioxole-7,3′-indol]-1′(2′H)-yl)methyl]benzoic acid] it is > 1000 nM; for `O=C(NCCc1ccc(Cl)cc1)c1ccccc1CN1C(=O)C2(COc3cc4c(cc32)OCO4)c2ccccc21` (stereo not shown) [Example 7, N-[2-(4-chlorophenyl)ethyl]-2-[(2′-oxospiro[furo[2,3-f][1,3]benzodioxole-7,3′-indol]-1′(2′H)-yl)methyl]benzamide] it is 100 to 1000 nM. The figure for `O=C(O)c1cccc(CN2C(=O)C3(COc4cc5c(cc43)OCO5)c3ccccc32)c1` (stereo not shown) [Example 8, 3-[(2′-oxospiro[furo[2,3-f][1,3]benzodioxole-7,3′-indol]-1′(2′H)-yl)methyl]benzoic acid] is 100 to 1000 nM; for `O=C(NCCc1cccc(Cl)c1)c1cccc(CN2C(=O)C3(COc4cc5c(cc43)OCO5)c3ccccc32)c1` (stereo not shown) [Example 9, N-[2-(3-chlorophenyl)ethyl]-3-[(2′-oxospiro[furo[2,3-f][1,3]benzodioxole-7,3′-indol]-1′(2′H)-yl)methyl]benzamide] it is 100 to 1000 nM; for `O=C1N(Cc2ccc(F)cc2)c2ccccc2C12COc1cc3c(cc12)OCO3` (stereo not shown) [Example 10, 1′-(4-fluorobenzyl)spiro[furo[2,3-f][1,3]benzodioxole-7,3′-indol]-2′(1′H)-one] it is 10 to 100 nM. As for `O=C(O)c1ccc(CN2C(=O)C3(COc4cc5c(cc43)OCO5)c3ccccc32)cc1` (stereo not shown) [Example 11, 4-[(2′-oxospiro[furo[2,3-f][1,3]benzodioxole-7,3′-indol]-1′(2′H)-yl)methyl]benzoic acid], the IC50 is > 1000 nM. For the compound `O=C(Nc1cccc(F)c1)c1ccc(CN2C(=O)C3(COc4cc5c(cc43)OCO5)c3ccccc32)cc1` (stereo not shown) [Example 12, N-(3-fluorophenyl)-4-[(2′-oxospiro[furo[2,3-f][1,3]benzodioxole-7,3′-indol]-1′(2′H)-yl)methyl]benzamide], the IC50 was in the range of 100 to 1000 nM. The figure for `O=C1N(CCCO)c2ccccc2C12COc1cc3c(cc12)OCO3` (stereo not shown) [Example 13, 1′-(3-hydroxypropyl)spiro[furo[2,3-f][1,3]benzodioxole-7,3′-indol]-2′(1′H)-one] is 10 to 100 nM; for `O=C1N(CCCNCC2CC2)c2ccccc2C12COc1cc3c(cc12)OCO3` (stereo not shown) [Example 15, 1′-{3-[(cyclopropylmethyl)amino]propyl}spiro[furo[2,3-f][1,3]benzodioxole-7,3′-indol]-2′(1′H)-one] it is > 1000 nM; for `NCCCN1C(=O)C2(COc3cc4c(cc32)OCO4)c2ccccc21` (stereo not shown) [Example 16, 1′-(3-aminopropyl)spiro[furo[2,3-f][1,3]benzodioxole-7,3′-indol]-2′(1′H)-one] it is > 1000 nM. As for `O=C(NCCCN1C(=O)C2(COc3cc4c(cc32)OCO4)c2ccccc21)c1sccc1Cl` (stereo not shown) [Example 17, 3-chloro-N-[3-(2′-oxospiro[furo[2,3-f][1,3]benzodioxole-7,3′-indol]-1′(2′H)-yl)propyl]thiophene-2-carboxamide], the IC50 is 10 to 100 nM. As for `NCCN1C(=O)C2(COc3cc4c(cc32)OCO4)c2ccccc21` (stereo not shown) [Example 18, 1′-(2-aminoethyl)spiro[furo[2,3-f][1,3]benzodioxole-7,3′-indol]-2′(1′H)-one], the figure is > 1000 nM; as for `O=C(NCCN1C(=O)C2(COc3cc4c(cc32)OCO4)c2ccccc21)Nc1ccc(F)cc1` (stereo not shown) [Example 19, 1-(4-fluorophenyl)-3-[2-(2′-oxospiro[furo[2,3-f][1,3]benzodioxole-7,3′-indol]-1′(2′H)-yl)ethyl]urea], > 1000 nM; as for `CCCCCN1C(=O)C2(CC(=O)c3cc4c(cc32)OCO4)c2ccccc21` (stereo not shown) [Example 21, 1′-pentylspiro[indeno[5,6-d][1,3]dioxole-5,3′-indole]-2′,7(1′H,6H)-dione], 1 to 10 nM.

For the compound `CCCCCN1C(=O)C2(CCC(=O)c3cc4c(cc32)OCO4)c2ccccc21` (stereo not shown) [Example 22, 1-pentyl-6′H-spiro[indole-3,5′-naphtho[2,3-d][1,3]dioxole]-2,8′(1′H,7′H)-dione], the IC50 fell in the range of 1 to 10 nM. The figure for `CCCCCN1C(=O)C2(CCc3cc4c(cc32)OCO4)c2ccccc21` (stereo not shown) [Example 23, 1′-pentyl-6,7-dihydrospiro[indeno[5,6-d][1,3]dioxole-5,3′-indol]-2′(1′H)-one] is 100 to 1000 nM.

Turning to `CCCCCN1C(=O)C2(CCCc3cc4c(cc32)OCO4)c2ccccc21` (stereo not shown) [Example 24, 1-pentyl-7′,8′-dihydro-6′H-spiro[indole-3,5′-naphtho[2,3-d][1,3]dioxol]-2(1H)-one], the IC50 fell in the range of 1 to 10 nM.

As for `CCCCCN1C(=O)C2(CC(O)c3cc4c(cc32)OCO4)c2ccccc21` (stereo not shown) [Example 26, 7-hydroxy-1′-pentyl-6,7-dihydrospiro[indeno[5,6-d][1,3]dioxole-5,3′-indol]-2′(1′H)-one], the IC50 was > 1000 nM. As for `CCCCCN1C(=O)C2(CC(OC)c3cc4c(cc32)OCO4)c2ccccc21` (stereo not shown) [Example 27, 7-methoxy-1′-pentyl-6,7-dihydrospiro[indeno[5,6-d][1,3]dioxole-5,3′-indol]-2′(1′H)-one], the figure is > 1000 nM; as for `CCCCCN1C(=O)C2(CNC(=O)c3cc4c(cc32)OCO4)c2ccccc21` (stereo not shown) [Example 28, 1′-pentyl-6,7-dihydro-5H-spiro[1,3-dioxolo[4,5-d]isoquinoline-8,3′-indole]-2′,5(1′H)-dione], > 1000 nM.

As to `CCCCCN1C(=O)C2(COc3cc4c(cc32)OCO4)c2c(C(=O)Nc3ccccn3)cccc21` (stereo not shown) [Example 29, 2′-oxo-1′-pentyl-N-pyridin-2-yl-1′,2′-dihydrospiro[furo[2,3-f][1,3]benzodioxole-7,3′-indole]-4′-carboxamide], the IC50 is > 1000 nM.

As to `CCCCCCN1C(=O)C2(CC(=O)Oc3cc4c(cc32)OCO4)c2ccccc21` (stereo not shown) [Example 31, 1′-hexylspiro[1,3-dioxolo[4,5-g]chromene-8,3′-indole]-2′,6(1′H,7H)-dione], the IC50 was > 1000 nM. In the case of `CCCCCN1C(=O)C2(COc3ccccc32)c2ccccc21` (stereo not shown) [Example 32, 1′-pentylspiro[1-benzofuran-3,3′-indol]-2′(1′H)-one], the half-inhibitory concentration (IC50) lay in the range of 10 to 100 nM. As for `CCCCCN1C(=O)C2(COc3cc(Nc4ccccc4)ccc32)c2ccccc21` (stereo not shown) [Example 33, 6-anilino-1′-pentylspiro[1-benzofuran-3,3′-indol]-2′(1′H)-one], the figure is > 1000 nM.

Regarding `CCCCCN1C(=O)C2(COc3cc(N4CCOCC4)ccc32)c2ccccc21` (stereo not shown) [Example 34, 6-morpholin-4-yl-1′-pentylspiro[1-benzofuran-3,3′-indol]-2′(1′H)-one], the IC50 is > 1000 nM. As for `CCCCCN1C(=O)C2(COc3cc(Oc4ccccc4)ccc32)c2ccccc21` (stereo not shown) [Example 36, 1′-pentyl-6-phenoxyspiro[1-benzofuran-3,3′-indol]-2′(1′H)-one], the IC50 was > 1000 nM.

On to `CCCCCN1C(=O)C2(COc3cc(-c4cccnc4)ccc32)c2ccccc21` (stereo not shown) [Example 37, 1′-pentyl-6-pyridin-3-ylspiro[1-benzofuran-3,3′-indol]-2′(1′H)-one], for which the IC50 was > 1000 nM.
